pIC50: −log10 of the molar value.
Biological target: T1, GAL4-DBD/RORγ-LBD (Homo sapiens, UniProt P51449)
T1 construct: expressed in transfected cells; host or cells: HEK293T
Assay: RORγt transactivation reporter assay (GAL4-DBD/RORγ-LBD, luciferase read out)
Format: cell-based
Settings: HEK293T cells, GAL4-UAS luciferase reporter, overnight (18-24 hours) incubation
Summary of the method: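 HEK293T cells were transiently co-transfected with GAL4-DBD/RORγt-LBD (SV40-Renilla transfection control) and a 9×GAL4-UAS firefly Luc2P reporter. Compounds (0.4% DMSO in the compound solution) were added 5 h post-transfection in FBS-free DMEM for 18–24 h at 37 °C. IC50 was taken from the normalised Dual-Glo luciferase signal.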

T1 sequence (P51449 269-508 limits assumed): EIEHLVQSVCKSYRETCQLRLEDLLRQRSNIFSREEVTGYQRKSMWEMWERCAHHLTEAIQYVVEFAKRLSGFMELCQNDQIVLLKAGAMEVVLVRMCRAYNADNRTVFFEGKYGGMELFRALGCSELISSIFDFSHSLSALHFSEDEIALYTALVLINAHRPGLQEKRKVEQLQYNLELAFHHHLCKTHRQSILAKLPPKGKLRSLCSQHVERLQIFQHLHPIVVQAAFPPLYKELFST
T1 sequence (P04386 1-147 partner limits assumed): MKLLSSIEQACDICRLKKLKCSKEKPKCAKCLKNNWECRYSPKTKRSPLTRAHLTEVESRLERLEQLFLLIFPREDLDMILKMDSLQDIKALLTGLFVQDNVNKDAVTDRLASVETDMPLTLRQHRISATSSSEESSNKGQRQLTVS

Compound | pIC50
O=C(O)c1ccc(-c2cc(C(=O)c3c(Cl)ccc(F)c3Cl)n3cccc(F)c23)c(F)c1 [Example A-49, 4-[3-(2,6-dichloro-3-fluoro-benzoyl)-8-fluoro-indolizin-1-yl]-3-fluoro-benzoic acid] | > 6.30
CN(C)C(=O)c1ccc2c(-c3ccc(C(=O)O)cc3)cc(C(=O)c3c(Cl)cccc3Cl)n2c1 [Example D-2, 4-[3-(2,6-dichlorobenzoyl)-6-(dimethylcarbamoyl)indolizin-1-yl]benzoic acid] | > 6.30
Cc1c(-c2ccc(C(=O)O)cc2)c2ccccn2c1C(=O)c1c(Cl)cccc1C(F)(F)F [Example C-7, 4-[3-[2-chloro-6-(trifluoromethyl)benzoyl]-2-methyl-indolizin-1-yl]benzoic acid] | > 6.30
CCOC(=O)c1ccc(-c2cc(C(=O)c3c(Cl)cccc3Cl)n3cccc(C(F)(F)F)c23)cc1 [Example A-62, ethyl 4-[3-(2,6-dichlorobenzoyl)-8-(trifluoromethyl)indolizin-1-yl]benzoate] | > 6.30
CCOC(=O)c1ccc(-c2cc(C(=O)c3c(Cl)cccc3Cl)n3cc(C(F)(F)F)ccc23)cc1 [Example A-64, ethyl 4-[3-(2,6-dichlorobenzoyl)-6-(trifluoromethyl)indolizin-1-yl]benzoate] | > 6.30
4-[3-(2,6-dichlorobenzoyl)-6-(4H-1,2,4-triazol-3-yl)indolizin-1-yl]benzoic acid [Example D-10] | > 6.30

Second part, the compound after the results:

pIC50 | Compound
> 6.30 | Cc1cccc(Cl)c1C(=O)c1cc(-c2ccc(C(=O)O)cc2F)c2ccccn12 [Example A-15, 4-[3-(2-chloro-6-methyl-benzoyl)indolizin-1-yl]-3-fluoro-benzoic acid]
> 6.30 | CCOC(=O)c1ccc(-c2cc(C(=O)c3c(F)cccc3Cl)n3cccc(F)c23)cc1 [Example A-32, ethyl 4-[3-(2-chloro-6-fluoro-benzoyl)-8-fluoro-indolizin-1-yl]benzoate]
< 5.30 | O=C(c1c(Cl)ccc(F)c1Cl)c1cc(-c2ccc(C(=O)N3CCOCC3)cc2)c2ccccn12 [Example F-3, [4-[3-(2,6-dichloro-3-fluoro-benzoyl)indolizin-1-yl]phenyl]-morpholino-methanone]
